Values quoted from earlier work, collected in article PMC4838521 (ChemMedChem, 2015).
pKd: −log10 of the molar value.

Target: YopH-NT (Yersinia pestis, UniProt O68720)
Conditions: read-out: Kd for YopH-NT

YopH-NT, sequence (O68720 1-129 limits assumed): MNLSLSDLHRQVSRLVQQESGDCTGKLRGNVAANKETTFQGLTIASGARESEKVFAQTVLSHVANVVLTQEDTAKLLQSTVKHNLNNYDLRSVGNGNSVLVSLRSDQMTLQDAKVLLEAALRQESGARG

Row | Substance | pKd
1 | cyclo-DE(pY)DDPfK | ~4.82
2 | cyclo-DE(pY)LDPfK | ~4.64
